{
  "source": "ChEMBL document CHEMBL5584362",
  "about": "“Sucurchalasins A and B, Sulfur-Containing Heterodimers of a Cytochalasan and a Macrolide from the Endophytic Fungus Aspergillus spelaeus GDGJ-286” (J Nat Prod, 2024)",
  "note": "Active and inactive are the calls of the source. The calls are words filed in the database; no cut-off is given here.",
  "data": [
    {"test_system": "Salmonella typhi", "assay": "Antibacterial activity against Salmonella typhi at 25 ug/ml measured after 20 to 45 mins by broth microdilution method", "format": "functional, organism-based", "settings": "Salmonella enterica subsp. enterica serovar Typhi; dose 25.0 µg/ml, time 20-45 min", "values": [
      {"smiles": "C[C@H]1CCC/C=C/C(=O)c2c(O)cc(O)cc2CC(=O)O1", "note": "[DEHYDROCURVULARIN]", "Activity": "inactive"}
    ]},
    {"test_system": "A2780", "assay": "Cytotoxicity against human A2780 cells by MTT assay", "format": "functional, cell-based", "settings": "not given", "units": {"IC50": "µM"}, "values": [
      {"smiles": "C[C@H]1CCC/C=C/C(=O)c2c(O)cc(O)cc2CC(=O)O1", "note": "[DEHYDROCURVULARIN]", "IC50": 4.3}
    ]},
    {"test_system": "SK-OV-3", "assay": "Cytotoxicity against human SK-OV-3 cells by MTT assay", "format": "functional, cell-based", "settings": "not given", "units": {"IC50": "µM"}, "values": [
      {"smiles": "C[C@H]1CCC/C=C/C(=O)c2c(O)cc(O)cc2CC(=O)O1", "note": "[DEHYDROCURVULARIN]", "IC50": 20}
    ]},
    {"test_system": "HeLa", "assay": "Cytotoxicity against human HeLa cells by MTT assay", "format": "functional, cell-based", "settings": "not given", "units": {"IC50": "µM"}, "values": [
      {"smiles": "C[C@H]1CCC/C=C/C(=O)c2c(O)cc(O)cc2CC(=O)O1", "note": "[DEHYDROCURVULARIN]", "IC50": 7.9}
    ]},
    {"test_system": "HepG2", "assay": "Cytotoxicity against human HepG2 cells by MTT assay", "format": "functional, cell-based", "settings": "not given", "units": {"IC50": "µM"}, "values": [
      {"smiles": "C[C@H]1CCC/C=C/C(=O)c2c(O)cc(O)cc2CC(=O)O1", "note": "[DEHYDROCURVULARIN]", "IC50": 12}
    ]},
    {"test_system": "A2780", "assay": "Induction of apoptosis in human A2780 cells assessed as chromatin condensation at 1 to 9 uM measured after 48 hrs by Hoechst 33258 staining based assay", "format": "functional, cell-based", "settings": "dose 1-9 µM", "values": [
      {"smiles": "C[C@H]1CCC/C=C/C(=O)c2c(O)cc(O)cc2CC(=O)O1", "note": "[DEHYDROCURVULARIN]", "Activity": "Active"}
    ]},
    {"test_system": "A2780", "assay": "Induction of apoptosis in human A2780 cells assessed as chromatin fragmentation at 1 to 9 uM measured after 48 hrs by Hoechst 33258 staining based assay", "format": "functional, cell-based", "settings": "dose 1-9 µM", "values": [
      {"smiles": "C[C@H]1CCC/C=C/C(=O)c2c(O)cc(O)cc2CC(=O)O1", "note": "[DEHYDROCURVULARIN]", "Activity": "Active"}
    ]},
    {"test_system": "A2780", "assay": "Induction of apoptosis in human A2780 cells assessed as increase in early apoptotic cells measured after 48 hrs by Annexin V-FITC/PI staining based FACS analysis", "format": "functional, cell-based", "settings": "dose 1-9 µM", "values": [
      {"smiles": "C[C@H]1CCC/C=C/C(=O)c2c(O)cc(O)cc2CC(=O)O1", "note": "[DEHYDROCURVULARIN]", "Activity": "Dose-Dependent Effect"}
    ]},
    {"test_system": "A2780", "assay": "Induction of apoptosis in human A2780 cells assessed as increase in late apoptotic cells measured after 48 hrs by Annexin V-FITC/PI staining based FACS analysis", "format": "functional, cell-based", "settings": "dose 1-9 µM", "values": [
      {"smiles": "C[C@H]1CCC/C=C/C(=O)c2c(O)cc(O)cc2CC(=O)O1", "note": "[DEHYDROCURVULARIN]", "Activity": "Dose-Dependent Effect"}
    ]},
    {"test_system": "A2780", "assay": "Induction of apoptosis in human A2780 cells assessed as viable cells at 1 uM measured after 48 hrs by Annexin V-FITC/PI staining based FACS analysis (reference value: 92.6 to 92.8%)", "format": "functional", "settings": "read-out: Activity", "units": {"viability at 1 µM": "%"}, "values": [
      {"smiles": "C[C@H]1CCC/C=C/C(=O)c2c(O)cc(O)cc2CC(=O)O1", "note": "[DEHYDROCURVULARIN]", "viability at 1 µM": 94.2}
    ]},
    {"test_system": "A2780", "assay": "Induction of apoptosis in human A2780 cells assessed as early apoptotic cells at 1 uM measured after 48 hrs by Annexin V-FITC/PI staining based FACS analysis (reference value: 1.68 to 1.9%)", "format": "functional", "settings": "not given", "units": {"Activity": "%"}, "values": [
      {"smiles": "C[C@H]1CCC/C=C/C(=O)c2c(O)cc(O)cc2CC(=O)O1", "note": "[DEHYDROCURVULARIN]", "Activity": 2.2}
    ]},
    {"test_system": "A2780", "assay": "Induction of apoptosis in human A2780 cells assessed as late apoptotic cells at 1 uM measured after 48 hrs by Annexin V-FITC/PI staining based FACS analysis (reference value: 2.32 to 2.4%)", "format": "functional", "settings": "not given", "units": {"Activity": "%"}, "values": [
      {"smiles": "C[C@H]1CCC/C=C/C(=O)c2c(O)cc(O)cc2CC(=O)O1", "note": "[DEHYDROCURVULARIN]", "Activity": 1.87}
    ]},
    {"test_system": "A2780", "assay": "Induction of apoptosis in human A2780 cells assessed as necrotic cells at 1 uM measured after 48 hrs by Annexin V-FITC/PI staining based FACS analysis (reference value: 1.34 to 3.3%)", "format": "functional", "settings": "not given", "units": {"Activity": "%"}, "values": [
      {"smiles": "C[C@H]1CCC/C=C/C(=O)c2c(O)cc(O)cc2CC(=O)O1", "note": "[DEHYDROCURVULARIN]", "Activity": 1.68}
    ]},
    {"test_system": "A2780", "assay": "Induction of apoptosis in human A2780 cells assessed as viable cells at 3 uM measured after 48 hrs by Annexin V-FITC/PI staining based FACS analysis (reference value: 92.6 to 92.8%)", "format": "functional", "settings": "read-out: Activity", "units": {"viability at 3 µM": "%"}, "values": [
      {"smiles": "C[C@H]1CCC/C=C/C(=O)c2c(O)cc(O)cc2CC(=O)O1", "note": "[DEHYDROCURVULARIN]", "viability at 3 µM": 80.8}
    ]},
    {"test_system": "A2780", "assay": "Induction of apoptosis in human A2780 cells assessed as early apoptotic cells at 3 uM measured after 48 hrs by Annexin V-FITC/PI staining based FACS analysis (reference value: 1.68 to 1.9%)", "format": "functional", "settings": "not given", "units": {"Activity": "%"}, "values": [
      {"smiles": "C[C@H]1CCC/C=C/C(=O)c2c(O)cc(O)cc2CC(=O)O1", "note": "[DEHYDROCURVULARIN]", "Activity": 11.1}
    ]},
    {"test_system": "A2780", "assay": "Induction of apoptosis in human A2780 cells assessed as late apoptotic cells at 3 uM measured after 48 hrs by Annexin V-FITC/PI staining based FACS analysis (reference value: 2.32 to 2.4%)", "format": "functional", "settings": "not given", "units": {"Activity": "%"}, "values": [
      {"smiles": "C[C@H]1CCC/C=C/C(=O)c2c(O)cc(O)cc2CC(=O)O1", "note": "[DEHYDROCURVULARIN]", "Activity": 5.07}
    ]},
    {"test_system": "A2780", "assay": "Induction of apoptosis in human A2780 cells assessed as necrotic cells at 3 uM measured after 48 hrs by Annexin V-FITC/PI staining based FACS analysis (reference value: 1.34 to 3.3%)", "format": "functional", "settings": "not given", "units": {"Activity": "%"}, "values": [
      {"smiles": "C[C@H]1CCC/C=C/C(=O)c2c(O)cc(O)cc2CC(=O)O1", "note": "[DEHYDROCURVULARIN]", "Activity": 2.09}
    ]},
    {"test_system": "A2780", "assay": "Induction of apoptosis in human A2780 cells assessed as viable cells at 9 uM measured after 48 hrs by Annexin V-FITC/PI staining based FACS analysis (reference value: 92.6 to 92.8%)", "format": "functional", "settings": "read-out: Activity", "units": {"viability at 9 µM": "%"}, "values": [
      {"smiles": "C[C@H]1CCC/C=C/C(=O)c2c(O)cc(O)cc2CC(=O)O1", "note": "[DEHYDROCURVULARIN]", "viability at 9 µM": 34.1}
    ]},
    {"test_system": "A2780", "assay": "Induction of apoptosis in human A2780 cells assessed as early apoptotic cells at 9 uM measured after 48 hrs by Annexin V-FITC/PI staining based FACS analysis (reference value: 1.68 to 1.9%)", "format": "functional", "settings": "not given", "units": {"Activity": "%"}, "values": [
      {"smiles": "C[C@H]1CCC/C=C/C(=O)c2c(O)cc(O)cc2CC(=O)O1", "note": "[DEHYDROCURVULARIN]", "Activity": 51.6}
    ]},
    {"test_system": "A2780", "assay": "Induction of apoptosis in human A2780 cells assessed as late apoptotic cells at 9 uM measured after 48 hrs by Annexin V-FITC/PI staining based FACS analysis (reference value: 2.32 to 2.4%)", "format": "functional", "settings": "not given", "units": {"Activity": "%"}, "values": [
      {"smiles": "C[C@H]1CCC/C=C/C(=O)c2c(O)cc(O)cc2CC(=O)O1", "note": "[DEHYDROCURVULARIN]", "Activity": 12.2}
    ]},
    {"test_system": "A2780", "assay": "Induction of apoptosis in human A2780 cells assessed as necrotic cells at 9 uM measured after 48 hrs by Annexin V-FITC/PI staining based FACS analysis (reference value: 1.34 to 3.3%)", "format": "functional", "settings": "not given", "units": {"Activity": "%"}, "values": [
      {"smiles": "C[C@H]1CCC/C=C/C(=O)c2c(O)cc(O)cc2CC(=O)O1", "note": "[DEHYDROCURVULARIN]", "Activity": 2.11}
    ]},
    {"test_system": "Shigella dysenteriae", "assay": "Antibacterial activity against Shigella dysenteriae measured after 20 to 45 mins by broth microdilution method", "format": "functional", "settings": "time 20-45 min", "units": {"MIC": "µg/mL"}, "values": [
      {"smiles": "C[C@H]1CCC/C=C/C(=O)c2c(O)cc(O)cc2CC(=O)O1", "note": "[DEHYDROCURVULARIN]", "MIC": 6.3}
    ]},
    {"test_system": "Enterococcus faecalis", "assay": "Antibacterial activity against Enterococcus faecalis measured after 20 to 45 mins by broth microdilution method", "format": "functional", "settings": "time 20-45 min", "units": {"MIC": "µg/mL"}, "values": [
      {"smiles": "C[C@H]1CCC/C=C/C(=O)c2c(O)cc(O)cc2CC(=O)O1", "note": "[DEHYDROCURVULARIN]", "MIC": 13}
    ]},
    {"test_system": "Bacillus subtilis", "assay": "Antibacterial activity against Bacillus subtilis measured after 20 to 45 mins by broth microdilution method", "format": "functional", "settings": "time 20-45 min", "units": {"MIC": "µg/mL"}, "values": [
      {"smiles": "C[C@H]1CCC/C=C/C(=O)c2c(O)cc(O)cc2CC(=O)O1", "note": "[DEHYDROCURVULARIN]", "MIC": 3.1}
    ]},
    {"test_system": "Vibrio parahaemolyticus", "assay": "Antibacterial activity against Vibrio parahaemolyticus measured after 20 to 45 mins by broth microdilution method", "format": "functional", "settings": "time 20-45 min", "units": {"MIC": "µg/mL"}, "values": [
      {"smiles": "C[C@H]1CCC/C=C/C(=O)c2c(O)cc(O)cc2CC(=O)O1", "note": "[DEHYDROCURVULARIN]", "MIC": 25}
    ]},
    {"test_system": "Escherichia coli", "assay": "Antibacterial activity against Escherichia coli measured after 20 to 45 mins by broth microdilution method", "format": "functional", "settings": "time 20-45 min", "units": {"MIC": "µg/mL"}, "values": [
      {"smiles": "C[C@H]1CCC/C=C/C(=O)c2c(O)cc(O)cc2CC(=O)O1", "note": "[DEHYDROCURVULARIN]", "MIC": 25}
    ]},
    {"test_system": "Staphylococcus aureus", "assay": "Antibacterial activity against Staphylococcus aureus at 25 ug/ml measured after 20 to 45 mins by broth microdilution method", "format": "functional, organism-based", "settings": "dose 25.0 µg/ml, time 20-45 min", "values": [
      {"smiles": "C[C@H]1CCC/C=C/C(=O)c2c(O)cc(O)cc2CC(=O)O1", "note": "[DEHYDROCURVULARIN]", "Activity": "inactive"}
    ]}
  ]
}
